Assay results published in ChEMBL document CHEMBL1201862, “PubChem BioAssay data set” (2004).
Values joined by “and” are separate entries in the source; they are usually repeats but may differ in a detail not shown here. Equal values may be shown once.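 Growth conditions: 96-well plates. Treatment: test compound, 48 hours, 5 concentrations. Analysis: linear interpolation between bracketing concentrations; unreached endpoints set to highest concentration. GI50 is the concentration that inhibits growth by half.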 Active and inactive are the calls of the source. Cut-off read from the data, not from the text of the source: active = GI50 up to about 1.1 µM and inactive = higher.

Columns and labels:
Assay in all cases: DTP human tumour cell line panel, 48 h
[1] = system: UACC-62
[2] = system: SN12C
[3] = system: SNB-19
[4] = system: OVCAR-3
[5] = system: HOP-62
[6] = system: NCI-H460
[7] = system: HCC 2998
[8] = system: MCF7
[9] = system: SK-MEL-5
[10] = system: UACC-257
[11] = system: ACHN
[12] = system: HT-29
[13] = system: BT-549
[14] = system: TK-10
[15] = system: MDA-N
[16] = system: SR
[17] = system: SW-620
[18] = system: RPMI-8226
[19] = system: KM12
[20] = system: MDA-MB-231
[21] = system: K562
[22] = system: NCI/ADR-RES
[23] = system: A549
[24] = system: CAKI-1
[25] = system: NCI-H226
[26] = system: SF-268
[27] = system: COLO 205
[28] = system: SF-539
[29] = system: SK-OV-3
[30] = system: MDA-MB-435
[31] = system: U-251
[32] = system: OVCAR-5
[33] = system: DU-145
[34] = system: OVCAR-4
[35] = system: OVCAR-8
[36] = system: CCRF-CEM
[37] = system: 786-0
[38] = system: SNB-75
[39] = system: RXF 393
[40] = system: HOP-92
[41] = system: HL-60
[42] = system: MOLT-4
[43] = system: UO-31
[44] = system: HCT-116
[45] = system: LOX IMVI
[46] = system: SK-MEL-2
[47] = system: NCI-H522
[48] = system: HCT-15
[49] = system: SK-MEL-28
[50] = system: SF-295
[51] = system: PC-3
[52] = system: EKVX
[53] = system: T47D
[54] = system: NCI-H23
[55] = system: M14
[56] = system: IGROV-1
[57] = system: A498
[58] = system: Malme-3M

Measured: GI50

C#CC1(O)C(COP(=O)(O)OC(COCCCCCCCCCCCCCCCCCC)COP(=O)(O)OCC2OC(n3cc(F)c(=O)[nH]c3=O)CC2O)OC(n2ccc(N)nc2=O)C1O (configuration not stated)
inactive: [7] 1.26 µM | [10] 1.15 µM and 1.92 µM | [29] 1.32 µM and 2.43 µM
active: [1] 546 nM and 277 nM | [2] 0.0818 µM | [3] 152 nM and 277 nM | [5] 434 nM and 399 nM | [6] < 21.3 nM and < 13.9 nM | [8] < 24.7 nM and < 18.3 nM | [9] 621 nM and 467 nM | [11] < 36.1 nM and 59.2 nM | [12] 361 nM and 313 nM | [13] 752 nM and 466 nM | [14] 200 nM and 124 nM | [15] 418 nM and 293 nM | [16] < 13.8 nM and < 15.7 nM | [17] 114 nM and 91.8 nM | [18] 26.2 nM and < 16.3 nM | [19] 454 nM and 252 nM | [20] 1.1 µM and 731 nM | [21] < 31.3 nM and 27.5 nM | [22] 209 nM and 265 nM | [23] < 28.8 nM and 29.7 nM | [24] 48.5 nM and 54.8 nM | [25] 471 nM and 299 nM | [26] < 27.2 nM and 48.8 nM | [27] 244 nM and 211 nM | [28] < 21.3 nM and < 23.3 nM | [30] 514 nM and 376 nM
1.04 µM (active) and 1.93 µM (inactive): [4]

Nc1c(C(=O)c2ccc(Cl)cc2)[nH]c(NCc2ccccc2)c1C(=S)Nc1ccccc1
inactive: [31] 1.72 µM | [1] 8.15 µM | [32] 3 µM | [33] 3.44 µM | [2] 4.89 µM | [34] 1.66 µM | [35] 1.77 µM | [36] 2.44 µM | [37] 1.72 µM | [3] 4.07 µM | [38] 1.71 µM | [39] 1.79 µM | [40] 2.84 µM | [41] 3.93 µM | [4] 6.65 µM | [5] 3.67 µM | [6] 1.77 µM | [42] 2.58 µM | [43] 1.58 µM | [8] 1.58 µM | [44] 1.83 µM | [45] 1.8 µM | [10] 1.67 µM | [46] 1.91 µM | [11] 2.28 µM | [12] 1.94 µM | [47] 1.82 µM | [13] 2.49 µM | [14] 2.09 µM | [15] 1.73 µM | [17] 1.88 µM | [18] 1.79 µM | [19] 1.67 µM | [20] 1.9 µM | [21] 2.08 µM | [49] 1.77 µM | [22] 7.83 µM | [23] 2.18 µM | [24] 5.2 µM | [50] 1.83 µM | [51] 5.31 µM | [25] 7.91 µM | [26] 3.03 µM | [52] 7.21 µM | [27] 11.5 µM | [28] 4.62 µM | [29] 20.1 µM | [30] 1.74 µM | [53] 3.76 µM | [54] 2.39 µM | [55] 1.96 µM | [56] 2.37 µM | [57] 9.98 µM
active: [7] 0.372 µM
1.79 µM: [48]

COC(=O)c1cc(C(=O)OC)cc(-c2ccc3c(c2)-c2nc4c(c(-c5ccc(OC)cc5)c2CC3)CCc2ccc(-c3cc(C(=O)OC)cc(C(=O)OC)c3)cc2-4)c1
> 100 µM: [48]
active: [21] 0.061 µM
inactive: [31] > 100 µM | [1] > 100 µM | [32] 16 µM | [33] > 100 µM | [2] > 100 µM | [34] > 100 µM | [37] > 100 µM | [3] > 100 µM | [38] > 100 µM | [58] > 100 µM | [40] > 100 µM | [4] > 100 µM | [5] > 100 µM | [6] > 100 µM | [7] > 100 µM | [43] > 100 µM | [8] > 100 µM | [44] > 100 µM | [9] > 100 µM | [10] > 100 µM | [46] > 100 µM | [11] > 100 µM | [47] > 100 µM | [13] > 100 µM | [14] > 100 µM | [15] > 100 µM | [18] > 100 µM | [19] > 100 µM | [20] > 100 µM | [49] > 100 µM | [22] > 100 µM | [23] > 100 µM | [24] > 100 µM | [50] > 100 µM | [51] > 100 µM | [25] > 100 µM | [26] > 100 µM | [52] 16.9 µM | [27] > 100 µM | [29] > 100 µM | [30] > 100 µM | [53] > 100 µM | [54] > 100 µM | [55] > 100 µM | [57] > 100 µM

O=C(O)Cc1c[nH]c2ccc(F)cc12
> 100 µM: [48]
inactive: [31] > 100 µM | [1] > 100 µM | [32] > 100 µM | [33] > 100 µM | [2] > 100 µM | [34] > 100 µM | [35] > 100 µM | [36] > 100 µM | [37] > 100 µM | [3] > 100 µM | [38] > 100 µM | [39] > 100 µM | [40] > 100 µM | [41] > 100 µM | [4] > 100 µM | [5] > 100 µM | [6] > 100 µM | [42] > 100 µM | [7] > 100 µM | [43] > 100 µM | [8] > 100 µM | [44] > 100 µM | [45] > 100 µM | [9] > 100 µM | [10] > 100 µM | [46] > 100 µM | [11] > 100 µM | [12] > 100 µM | [13] > 100 µM | [14] > 100 µM | [15] > 100 µM | [16] > 100 µM | [17] > 100 µM | [18] > 100 µM | [19] > 100 µM | [20] > 100 µM | [21] > 100 µM | [49] > 100 µM | [22] > 100 µM | [23] > 100 µM | [24] > 100 µM | [50] > 100 µM | [51] > 100 µM | [25] > 100 µM | [52] > 100 µM | [27] > 100 µM | [28] > 100 µM | [29] > 100 µM | [30] > 100 µM | [53] > 100 µM | [54] > 100 µM | [55] > 100 µM | [56] > 100 µM | [57] > 100 µM
